Reference: patent publication US9040547B2, “Pyrrolopyrimidine and purine derivatives” (PFIZER INC., priority 2011, dated 2015)

What was measured:
Format in all cases: cell-based
[1] = target: T1, EGFR wildtype, endogenous (Homo sapiens, UniProt P00533); assay: pEGFR Y1068 ELISA assay, A549 cells; conditions: full serum media, stimulated 10 min with EGF (40 ng/mL), read-out: pEGFRY1068 ELISAA549 IC50;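 further: sandwich ELISA of phospho-EGFR Tyr1068 in cell lysates, cells exposed to compound for 2 h before EGF stimulation, 11-point threefold dilution series run in duplicate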
T1 construct: A549 (EGFR wildtype, endogenous); host or cells: A549
T1 sequence (P00533 25-1210): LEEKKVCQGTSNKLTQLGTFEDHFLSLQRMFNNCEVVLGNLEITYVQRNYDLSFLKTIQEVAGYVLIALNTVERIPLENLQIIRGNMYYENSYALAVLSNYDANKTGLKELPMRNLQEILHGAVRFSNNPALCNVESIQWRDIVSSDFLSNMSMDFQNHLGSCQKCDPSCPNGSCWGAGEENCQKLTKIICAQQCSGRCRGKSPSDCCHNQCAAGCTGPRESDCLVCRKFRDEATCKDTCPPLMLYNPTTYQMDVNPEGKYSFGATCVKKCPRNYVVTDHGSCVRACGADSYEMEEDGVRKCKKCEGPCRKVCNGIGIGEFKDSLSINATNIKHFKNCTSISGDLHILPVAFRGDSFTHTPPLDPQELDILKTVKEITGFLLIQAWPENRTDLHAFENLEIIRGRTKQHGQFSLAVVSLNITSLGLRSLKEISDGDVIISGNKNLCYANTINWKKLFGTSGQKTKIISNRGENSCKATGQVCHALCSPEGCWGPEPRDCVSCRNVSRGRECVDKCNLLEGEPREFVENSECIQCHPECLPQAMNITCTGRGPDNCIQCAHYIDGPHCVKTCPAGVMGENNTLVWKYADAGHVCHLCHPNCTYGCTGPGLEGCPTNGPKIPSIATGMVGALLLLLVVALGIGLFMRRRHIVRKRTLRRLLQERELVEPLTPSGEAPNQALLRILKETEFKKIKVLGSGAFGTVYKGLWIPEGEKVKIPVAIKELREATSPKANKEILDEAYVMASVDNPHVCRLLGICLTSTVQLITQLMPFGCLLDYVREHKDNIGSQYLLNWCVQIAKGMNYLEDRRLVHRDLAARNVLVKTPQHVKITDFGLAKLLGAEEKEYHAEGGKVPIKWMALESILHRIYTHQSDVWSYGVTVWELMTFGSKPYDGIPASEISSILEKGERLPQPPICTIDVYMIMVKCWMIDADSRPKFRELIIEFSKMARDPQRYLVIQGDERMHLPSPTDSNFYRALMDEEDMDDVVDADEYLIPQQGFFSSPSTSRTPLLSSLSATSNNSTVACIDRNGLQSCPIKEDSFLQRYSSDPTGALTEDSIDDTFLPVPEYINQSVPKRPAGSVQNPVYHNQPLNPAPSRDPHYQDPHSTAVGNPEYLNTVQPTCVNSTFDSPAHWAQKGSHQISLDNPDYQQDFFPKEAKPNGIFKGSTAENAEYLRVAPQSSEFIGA

EGFR Del (PC9) = target: T2, EGFR Del (PC9) (Homo sapiens, UniProt P00533, DEL746-750); assay: EGFR ELISA, PC9 Del cells; conditions: read-out: EGFR_ELISA9E PC9 Del IC50;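 further: cellular EGFR autophosphorylation at Tyr1068 quantified by sandwich ELISA of cell lysates after 2 h compound exposure at 37 °C, 11-point threefold dilution series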
T2 construct: endogenous in cells; host or cells: PC-9

NIH3T3/EGFR L858R+T790M = assay: Cell proliferation assay (CellTiter-Glo), NIH3T3/EGFR L858R+T790M; conditions: Mus musculus, NIH3T3, 120 h, 3T3 cell line, three to five days of compound treatment, read-out: 3T3 L858R_T790M IC50
EGFR L858R+T790M = EGFR L858R+T790M (Homo sapiens, UniProt P00533, L858R/T790M); assay: pEGFR Y1068 ELISA assay, NIH3T3/EGFR_L858R+T790M cells; conditions: 3T3 cell line, 2 hrs compound treatment; read-out: pEGFRY1068 ELISA3T3T790M—L858R IC50;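 further: sandwich ELISA of EGFR phosphorylated at Tyr1068 in lysates of stably transfected NIH/3T3 cells, 11-point threefold dilution series run in duplicate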
Sequence of EGFR L858R+T790M (P00533 25-1210 T790M/L858R): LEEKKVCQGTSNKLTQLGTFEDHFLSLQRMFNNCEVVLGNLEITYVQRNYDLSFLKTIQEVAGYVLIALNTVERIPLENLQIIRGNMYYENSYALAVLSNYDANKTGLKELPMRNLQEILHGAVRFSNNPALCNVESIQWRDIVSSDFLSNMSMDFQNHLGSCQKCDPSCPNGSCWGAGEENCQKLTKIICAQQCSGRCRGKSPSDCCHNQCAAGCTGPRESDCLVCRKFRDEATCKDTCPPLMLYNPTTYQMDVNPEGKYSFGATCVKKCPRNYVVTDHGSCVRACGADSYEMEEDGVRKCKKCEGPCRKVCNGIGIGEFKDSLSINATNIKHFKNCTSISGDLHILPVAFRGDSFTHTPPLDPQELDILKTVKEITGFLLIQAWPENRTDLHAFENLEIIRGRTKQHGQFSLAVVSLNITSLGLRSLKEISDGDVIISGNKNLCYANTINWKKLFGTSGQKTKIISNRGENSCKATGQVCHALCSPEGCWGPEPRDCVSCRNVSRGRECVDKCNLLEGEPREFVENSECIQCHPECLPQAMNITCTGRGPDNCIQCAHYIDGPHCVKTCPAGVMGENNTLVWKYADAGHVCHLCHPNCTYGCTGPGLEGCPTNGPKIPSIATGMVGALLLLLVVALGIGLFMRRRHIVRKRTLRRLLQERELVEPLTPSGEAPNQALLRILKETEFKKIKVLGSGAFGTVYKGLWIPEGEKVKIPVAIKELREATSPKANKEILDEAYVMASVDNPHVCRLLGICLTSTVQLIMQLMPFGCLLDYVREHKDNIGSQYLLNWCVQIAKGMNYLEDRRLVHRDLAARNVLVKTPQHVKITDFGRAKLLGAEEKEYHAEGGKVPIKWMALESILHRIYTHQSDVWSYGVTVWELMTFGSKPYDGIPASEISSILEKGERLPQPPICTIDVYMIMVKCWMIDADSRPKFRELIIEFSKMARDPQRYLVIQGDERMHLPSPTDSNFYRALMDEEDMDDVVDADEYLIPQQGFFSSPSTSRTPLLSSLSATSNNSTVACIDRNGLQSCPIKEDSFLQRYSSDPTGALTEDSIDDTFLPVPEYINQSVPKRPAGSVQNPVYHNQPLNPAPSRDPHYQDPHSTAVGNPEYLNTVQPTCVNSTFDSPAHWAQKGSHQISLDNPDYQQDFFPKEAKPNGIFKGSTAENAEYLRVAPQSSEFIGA

[2] = tested on: NIH3T3/EGFR_E746-A750_deletion; assay: Cell proliferation assay (CellTiter-Glo), NIH3T3/EGFR_E746-A750_deletion; conditions: Mus musculus, NIH3T3, 120 h, 3T3 cell line, three to five days of compound treatment, read-out: 3T3 del IC50
Method: (§1) Cell proliferation was measured using the CellTiter-Glo® Luminescent Cell Viability Assay. The assay involves the addition of a single reagent (CellTiter-Glo® Reagent) directly to cells cultured in serum-supplemented medium. The assay uses this one-step addition to induce cell lysis and generate a luminescent signal proportional to the amount of ATP present which is directly proportional to the number of metabolically active cells present in culture. The following cell lines were evaluated in this assay: NIH3T3/EGFR_L858R, NIH3T3/EGFR_E746-A750_deletion, NIH3T3/EGFR L858R+T790M, NIH3T3/EGFR_E746-A750_deletion+T790M, PC-9, PC9-DRH, NCI-H1975, and NCI-H3255. NIH/3T3 parental cells, NCI-H1975, and NCI-H3255 were purchased from the American Type Culture Collection (Manassas, Va.), and PC-9 cells were obtained from Japan. All cells were cultured according to recommendations. NIH/3T3 cells were grown in DMEM (Invitrogen, Carlsbad, Calif.) supplemented with 10% newborn calf serum (Invitrogen), and NIH3T3/EGFR mutant cells were grown in complete media with 5 μg/mL puromycin (Invitrogen). PC-9, NCI-H1975, and NCI-H3255 were grown in RPMI (Invitrogen, Carlsbad, Calif.) supplemented with 10% FBS (Sigma, St Louis, Mo.), and PC9-DRH cells were grown in complete media with 2 uM PF-00299804. Plasmids (pLPCX) with various EGFR constructs were made by GenScript (Piscataway, N.J.), and stable pools of NIH/3T3 cells expressing these constructs were made at Pfizer La Jolla. PC9-DRH cells were generated at Pfizer La Jolla by exposing cells to increasing concentrations of PF-00299804. Cells were plated in complete culture media (3000-5000 cells/well, 50 μl/well) on the bottom of white clear-bottom tissue culture treated microtiter plates (#3610, Corning Inc, Corning, N.Y.) and allowed to adhere overnight at 37° C., 5% CO2. The following day, compound dilution plates were prepared in 96 well clear V-bottom 0.5 mL polypropylene block plates (#3956, Corning, Inc). All cell lines were not evaluated for each compound. Each compound evaluated was prepared as a DMSO stock solution (10 mM). Compounds were tested in duplicate on each plate, with an 11-point serial dilution curve (1:3 dilution). Compound treatment (50 μl) was added from the compound dilution plate to the cell plate. The highest compound concentration was 1 or 10 μM (final), with a 0.3% final DMSO (#D-5879, Sigma, St Louis, Mo.) concentration. Plates were then incubated at 37° C., 5% CO2. After three to five days of compound treatment, CellTiter-Glo® Reagent (#G7573, Promega, Madison, Wis.) was prepared in one of two ways. If thawing a frozen aliquot of CellTiter-Glo® Reagent, the aliquot was thawed and equilibrated to room temperature prior to use while keeping it protected from light. Alternatively, new bottles of CellTiter-Glo® Buffer and CellTiter-Glo® Substrate were thawed and equilibrated to room temperature prior to use. CellTiter-Glo® Buffer (100 mL) was transferred into the amber bottle containing CellTiter-Glo® Substrate to reconstitute the lyophilized enzyme/substrate mixture, forming the CellTiter-Glo® Reagent. The reconstituted reagent was mixed by gently inverting the contents to obtain a homogeneous solution, and went into solution easily in less than one minute. Any unused reconstituted CellTiter-Glo® Reagent was immediately aliquoted and frozen at −20° C., protected from light. Cell plates were equilibrated at room temperature for approximately 30 minutes. An equivolume amount of CellTiter-Glo® Reagent (100 μL) was added to each well. Plates were mixed for two minutes on an orbital shaker to induce cell lysis, and then allowed to incubate at room temperature for 10 minutes to stabilize the luminescent signal. Luminescence was recorded using the PerkinElmer EnVision Excite Multilabel Reader used for endpoint reading for Luminescence detection (Waltham, Mass.). Data were analyzed using a four-parameter fit in Microsoft Excel. […]

[3] = tested on: NIH3T3/EGFR_E746-A750_deletion+T790M; assay: Cell proliferation assay (CellTiter-Glo), NIH3T3/EGFR_E746-A750_deletion+T790M; conditions: Mus musculus, NIH3T3, 120 h, 3T3 cell line, three to five days of compound treatment, read-out: 3T3 del_T790M IC50
Method: as §1

EGFR L858R = EGFR L858R (Homo sapiens, UniProt P00533, L858R); assay: pEGFR Y1068 ELISA assay, NIH3T3/EGFR_L858R cells; conditions: 3T3 cell line, 2 hrs compound treatment; read-out: pEGFRY1068 ELISA3T3 L858R IC50;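 further: sandwich ELISA of phospho-EGFR Tyr1068 in lysates of stably transfected NIH/3T3 pools after 2 h compound exposure at 37 °C, 11-point threefold dilution series run in duplicate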
Sequence of EGFR L858R (P00533 25-1210 L858R): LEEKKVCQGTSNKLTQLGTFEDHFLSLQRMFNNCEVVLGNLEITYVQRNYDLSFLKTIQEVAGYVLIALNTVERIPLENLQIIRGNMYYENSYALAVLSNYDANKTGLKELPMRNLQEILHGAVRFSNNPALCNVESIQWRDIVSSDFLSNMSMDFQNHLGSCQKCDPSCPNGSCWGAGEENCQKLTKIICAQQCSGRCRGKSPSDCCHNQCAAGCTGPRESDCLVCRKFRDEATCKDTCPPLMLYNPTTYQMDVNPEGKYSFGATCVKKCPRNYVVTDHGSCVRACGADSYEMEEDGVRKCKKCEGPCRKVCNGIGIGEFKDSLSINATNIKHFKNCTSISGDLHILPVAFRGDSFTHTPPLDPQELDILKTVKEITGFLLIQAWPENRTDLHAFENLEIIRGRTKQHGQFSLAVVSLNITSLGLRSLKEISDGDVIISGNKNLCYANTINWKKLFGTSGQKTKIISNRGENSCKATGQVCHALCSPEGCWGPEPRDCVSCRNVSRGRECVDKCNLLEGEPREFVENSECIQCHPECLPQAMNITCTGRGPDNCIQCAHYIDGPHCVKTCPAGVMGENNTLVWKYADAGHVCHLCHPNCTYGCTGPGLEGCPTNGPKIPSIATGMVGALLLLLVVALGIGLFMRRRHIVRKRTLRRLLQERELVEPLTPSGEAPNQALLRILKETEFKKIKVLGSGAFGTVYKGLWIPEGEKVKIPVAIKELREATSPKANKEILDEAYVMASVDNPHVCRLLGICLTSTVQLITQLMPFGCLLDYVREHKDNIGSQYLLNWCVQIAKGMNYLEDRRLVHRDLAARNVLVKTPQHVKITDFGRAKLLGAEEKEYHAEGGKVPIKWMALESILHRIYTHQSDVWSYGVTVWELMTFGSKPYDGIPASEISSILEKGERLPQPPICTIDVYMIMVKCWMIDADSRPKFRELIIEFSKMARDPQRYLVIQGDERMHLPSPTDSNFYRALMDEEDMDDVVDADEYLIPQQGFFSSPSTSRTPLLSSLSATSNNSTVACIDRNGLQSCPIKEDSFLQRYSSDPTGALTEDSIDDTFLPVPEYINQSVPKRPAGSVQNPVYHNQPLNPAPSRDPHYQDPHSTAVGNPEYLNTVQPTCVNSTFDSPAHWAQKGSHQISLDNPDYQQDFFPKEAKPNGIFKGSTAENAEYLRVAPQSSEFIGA

EGFR E746-A750 deletion = EGFR E746-A750 deletion (Homo sapiens, UniProt P00533, DEL746-750); assay: pEGFR Y1068 ELISA assay, NIH3T3/EGFR_E746-A750 deletion cells; conditions: 3T3 Del cells, 2 hrs compound treatment; read-out: ELISA7E 3T3 Del IC50;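 further: sandwich ELISA on cell lysates detecting phospho-EGFR at Tyr1068, compounds run as 11-point threefold dilution series in duplicate, IC50 from inhibition of this phosphorylation signal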
Sequence of EGFR E746-A750 deletion (P00533 with tags, fused parts or gaps DEL746-750): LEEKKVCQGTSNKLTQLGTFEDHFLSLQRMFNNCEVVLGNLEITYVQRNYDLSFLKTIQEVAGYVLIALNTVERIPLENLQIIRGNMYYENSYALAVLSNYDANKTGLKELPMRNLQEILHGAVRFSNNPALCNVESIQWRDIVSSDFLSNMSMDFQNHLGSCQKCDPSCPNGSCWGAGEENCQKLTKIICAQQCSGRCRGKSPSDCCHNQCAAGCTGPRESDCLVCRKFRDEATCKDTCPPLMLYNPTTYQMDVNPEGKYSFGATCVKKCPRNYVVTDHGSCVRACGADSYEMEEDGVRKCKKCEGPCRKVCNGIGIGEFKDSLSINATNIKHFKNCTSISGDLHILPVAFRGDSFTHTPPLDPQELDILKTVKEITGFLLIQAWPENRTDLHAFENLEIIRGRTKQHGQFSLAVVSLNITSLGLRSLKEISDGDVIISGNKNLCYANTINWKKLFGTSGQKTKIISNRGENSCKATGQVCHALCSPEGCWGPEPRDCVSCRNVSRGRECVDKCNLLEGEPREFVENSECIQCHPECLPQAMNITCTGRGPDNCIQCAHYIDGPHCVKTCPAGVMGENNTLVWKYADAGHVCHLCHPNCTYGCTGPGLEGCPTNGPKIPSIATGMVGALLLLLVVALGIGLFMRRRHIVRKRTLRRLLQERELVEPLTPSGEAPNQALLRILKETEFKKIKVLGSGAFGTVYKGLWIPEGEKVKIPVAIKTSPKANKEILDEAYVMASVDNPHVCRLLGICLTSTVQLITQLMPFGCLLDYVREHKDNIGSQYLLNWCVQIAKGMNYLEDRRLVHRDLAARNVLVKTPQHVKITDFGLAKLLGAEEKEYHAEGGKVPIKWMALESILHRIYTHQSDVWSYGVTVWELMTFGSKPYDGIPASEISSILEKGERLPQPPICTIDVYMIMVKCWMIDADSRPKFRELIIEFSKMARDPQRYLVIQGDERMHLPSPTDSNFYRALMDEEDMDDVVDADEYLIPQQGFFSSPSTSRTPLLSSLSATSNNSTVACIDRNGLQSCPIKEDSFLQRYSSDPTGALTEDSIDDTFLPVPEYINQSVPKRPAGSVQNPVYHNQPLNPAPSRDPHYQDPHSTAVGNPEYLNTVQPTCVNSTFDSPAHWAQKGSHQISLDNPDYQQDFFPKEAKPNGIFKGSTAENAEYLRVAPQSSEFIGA

NIH3T3/EGFR_L858R = assay: Cell proliferation assay (CellTiter-Glo), NIH3T3/EGFR_L858R; conditions: Mus musculus, NIH3T3, 120 h, 3T3 cell line, three to five days of compound treatment, read-out: 3T3 L858R IC50
Method: as §1

| SMILES | IC50 [1] | IC50 (EGFR Del (PC9)) | IC50 (NIH3T3/EGFR L858R+T790M) | IC50 (EGFR L858R+T790M) | IC50 [2] | IC50 [3] | IC50 (EGFR L858R) | IC50 (EGFR E746-A750 deletion) | IC50 (NIH3T3/EGFR_L858R) |
| --- | --- | --- | --- | --- | --- | --- | --- | --- | --- |
| C=CC(=O)N[C@H]1C[C@@H](Oc2nc(Nc3cnn(C)c3)nc3[nH]cc(C#N)c23)C1 (single isomer, unassigned) [Example 5, N-[cis-3-({5-cyano-2-[(1-methyl-1H-pyrazol-4-yl)amino]-7H-pyrrolo[2,3-d]pyrimidin-4-yl}oxy)cyclobutyl]prop-2-enamide] | > 10 µM | 0.982 µM | 0.1 to 1 µM | 0.221 µM | 0.1 to 1 µM | 0.1 to 1 µM | 1.81 µM | 1.32 µM | > 1 µM |
| C=CC(=O)Nc1cccc(Oc2nc(Nc3cnn(CCN(C)C)c3)nc3[nH]ccc23)c1 [Example 2, N-(3-{[2-({1-[2-(dimethylamino)ethyl]-1H-pyrazol-4-yl}amino)-7H-pyrrolo[2,3-d]pyrimidin-4-yl]oxy}phenyl)prop-2-enamide] | 2.92 µM | – | < 0.01 µM | 0.011 µM | < 0.01 µM | < 0.01 µM | 0.141 µM | 0.029 µM | 0.1 to 1 µM |
| C=CC(=O)Nc1cccc(Oc2nc(Nc3ccn(C)n3)nc3[nH]cc(Cl)c23)c1 [Example 21] | 7.85 µM | – | 0.01 to 0.1 µM | 0.013 µM | 0.01 to 0.1 µM | < 0.01 µM | 0.202 µM | 0.033 µM | > 1 µM |
| C=CC(=O)Nc1cccc(Oc2nc(Nc3ccn(CC)n3)nc3[nH]ccc23)c1 [Example 22] | > 10 µM | – | 0.01 to 0.1 µM | 0.011 µM | < 0.01 µM | < 0.01 µM | 0.081 µM | 0.027 µM | 0.1 to 1 µM |
| C=CC(=O)Nc1cccc(Oc2nc(Nc3cn(C)nc3C(F)(F)F)nc3[nH]ccc23)c1 [Example 32] | 1.34 µM | – | 0.01 to 0.1 µM | 0.009 µM | 0.01 to 0.1 µM | < 0.01 µM | 0.047 µM | 0.098 µM | > 1 µM |
| C=CC(=O)Nc1cccc(Oc2nc(Nc3ccn(C)n3)nc3[nH]cc(C#N)c23)c1 [Example 36] | > 10 µM | – | 0.1 to 1 µM | 0.02 µM | 0.01 to 0.1 µM | 0.01 to 0.1 µM | 0.418 µM | 0.045 µM | > 1 µM |
| C=CC(=O)Nc1cccc(Oc2nc(Nc3cnn(C)n3)nc3[nH]ccc23)c1 [Example 40] | > 6.38 µM | – | 0.01 to 0.1 µM | 0.02 µM | 0.01 to 0.1 µM | < 0.01 µM | 0.099 µM | 0.044 µM | > 1 µM |
| C=CC(=O)Nc1cccc(Oc2nc(Nc3cnn(C)c3)nc3[nH]cc(C#N)c23)c1 [Example 57] | > 10 µM | 0.044 µM | 0.01 to 0.1 µM | 0.067 µM | < 0.01 µM | 0.01 to 0.1 µM | 0.105 µM | 0.025 µM | > 1 µM |
| C=CC(=O)N[C@H]1C[C@H](Oc2nc(Nc3cnn(C)c3)nc3[nH]cc(Cl)c23)C1 [Example 63] | > 10 µM | – | > 1 µM | 0.067 µM | > 1 µM | 0.1 to 1 µM | 2.01 µM | 1.22 µM | > 1 µM |
| C=CC(=O)N1CC[C@@H](Oc2nc(Nc3cnn(C)c3)nc3[nH]cc(Cl)c23)C1 [Example 65] | > 10 µM | – | 0.1 to 1 µM | 0.044 µM | 0.1 to 1 µM | 0.01 to 0.1 µM | 0.51 µM | 1.17 µM | 0.1 to 1 µM |
| C=CC(=O)N1C[C@H](COc2nc(Nc3cn(C)nc3CC)nc3[nH]cc(F)c23)[C@@H](OC)C1 [Example 68] | > 10 µM | – | 0.1 to 1 µM | 0.042 µM | 0.1 to 1 µM | 0.01 to 0.1 µM | 0.208 µM | 1.06 µM | 0.1 to 1 µM |
| C=CC(=O)N1C[C@@H]2CN(c3nc(Nc4cnn(C)c4)nc4[nH]cc(Cl)c34)C[C@@H]2C1 [Example 71] | > 5.46 µM | – | 0.1 to 1 µM | 0.02 µM | 0.01 to 0.1 µM | 0.01 to 0.1 µM | 0.143 µM | 0.356 µM | 0.1 to 1 µM |
| C=CC(=O)Nc1cc(F)cc(Oc2nc(Nc3cnn([C@@H]4CCN(C)C4)c3)nc3[nH]ccc23)c1 [Example 107] | 2.17 µM | – | 0.01 to 0.1 µM | 0.003 µM | < 0.01 µM | < 0.01 µM | 0.026 µM | 0.012 µM | 0.01 to 0.1 µM |
